The assay concerns L6-GLUT4myc myotubes. Nature of the assay: GLUT4 translocation: cell surface GLUT4myc by anti-Myc antibody assay in L6-GLUT4myc myotubes. It is filed as cell-based, rat. On the set-up: key to GLUT4 translocation: fold of vehicle-treated group. Here is the method: The L6-GLUT4myc rat myoblast cell line was obtained from Dr. Amira Klip and Dr. Philip Bilan, through a license granted by The Hospital for Sick Children, 555 University Avenue, Toronto, Ontario, Canada M5G 1 × 8; or purchased from Kerafast, Boston, MA (ESK202)[43]. The 3T3-L1-GLUT4myc fibroblast cell line was provided by Dr. Tomoyuki Yuasa, Tokushima University[44]. L6-GLUT4myc myoblasts were grown in MEMα (32571036, Thermo Fisher Scientific, Waltham, MA) supplemented with 10% FBS and 1% antibiotics, and then induced to differentiate into myotubes in MEMα supplemented with 2% FBS and 1% antibiotics for 5–8 days. 3T3-L1-GLUT4myc fibroblasts were induced to differentiate into adipocytes as described previously,[45] with minor modifications. Briefly, cells were grown to confluence in growth medium: DMEM (10569010, Thermo Fisher Scientific) supplemented with 10% FBS and 1% antibiotics, and then induced to differentiate into adipocytes in growth medium supplemented with 1 μM dexamethasone, 2 μM rosiglitazone, 0.5 mM isobutylmethylxanthine, and 10 μg mL^−1 insulin for 2 days. The adipocytes were then cultured in growth medium supplemented with 10 μg mL^−1 insulin for a few days before being used for the experiments.
Cell surface GLUT4 levels in the L6-GLUT4myc myoblasts and myotubes were determined by antibody binding assay as described previously[43],[44], with minor modifications. Briefly, cells in a 96- or 24-well plate were starved in serum-free MEMα (0.1% BSA and 1% antibiotics) for 3 h and then treated with the indicated concentrations of DS20060511 and/or insulin for 30 min at 37 °C. After fixation with 4% paraformaldehyde, the cells were incubated with 1% glycine in PBS at 4 °C for 10 min, and blocked with 10% normal goat serum and 3% BSA in PBS at 4 °C for 30 min. The cells were then incubated with anti-c-Myc antibody (sc-40, 1:500) diluted with blocking buffer at 4 °C for 1 h, washed with cold PBS(+), incubated with HRP-conjugated anti-mouse IgG diluted with blocking buffer at 4 °C for 30 min, and then washed again. SuperSignal ELISA Pico Chemiluminescent Substrate (Thermo Fisher Scientific) was added and the luminescent signal was measured. To investigate GLUT4 translocation in the 3T3-L1-GLUT4myc adipocytes, the cells were prepared in a 24-well plate, and anti-c-Myc antibody (sc-789, 1:1000), HRP-conjugated anti-rabbit IgG and SIGMAFAST OPD regent (Sigma–Aldrich) were added for optical detection of the cell surface GLUT4myc levels. The GLUT4 translocation activity was normalized to that in the vehicle-treated group.

Values joined by “and” are separate entries in the source; they are usually repeats but may differ in a detail not shown here. Equal values may be shown once.

Consider `C/C1=C/C(=O)O[C@@H]2C[C@@H](CC[C@H](C)/C=C\CC1)O[C@@](O)([C@@H]1CSC(=O)N1)C2` [Latrunculin B, reference compound], for which the “effect on GLUT4 translocation induced by insulin” value (100 nM insulin, Latrunculin B 10-200 nM, Fig. 4d) was “suppressed GLUT4 translocation induced by insulin”. Further, under “30 μM DS20060511, Latrunculin B 10-200 nM, Fig. 4d”, the “effect on GLUT4 translocation induced by DS20060511” value was “not that induced by DS20060511 treatment”. For the same compound, the GLUT4 translocation was 1.16 and 0.86 and 0.98 (Control (no insulin or DS20060511), Latrunculin B 10 nM); 0.98 and 1.11 and 0.90 (Control, Latrunculin B 30 nM); 1.11 and 0.92 and 0.97 (Control, Latrunculin B 100 nM); 1.06 and 1.00 and 0.94 (Control, Latrunculin B 200 nM).
